Measured values: PubChem BioAssay AID226 (DTP/NCI, 2004)
Values joined by “and” are separate entries in the source; they are usually repeats but may differ in a detail not shown here. Equal entries are not always repeated. Inconclusive results and toxic doses are left out.

Test system: B6C3F1 mice, intracerebral ependymoblastoma, median survival T/C
Assay: NCI In Vivo Anticancer Drug Screen. Data for tumor model Ependymoblastoma (intracerebral) in B6C3F1 mice
Conditions: endpoint: median survival time, higher = longer survival
Experimental: The antitumor activity of compounds was measured in mice bearing transplantable tumors. Survival or tumor size were measured and the results are expressed as the measurement made in the treated group (T) divided by the measurement made in the vehicle treated control group (C). The tumor model used in this assay is Ependymoblastoma (intracerebral) in B6C3F1 mice

[1] = dose: 5.0 mg/kg/injection, schedule: Q01DX001 (ip), vehicle: DMSO
[2] = dose: 8.0 mg/kg/injection, schedule: Q01DX005 (ip), vehicle: saline with Tween-80
[3] = dose: 8.3 mg/kg/injection, schedule: Q01DX001 (ip), vehicle: DMSO
[4] = dose: 16.0 mg/kg/injection, schedule: Q01DX005 (ip), vehicle: saline with Tween-80
[5] = dose: 23.0 mg/kg/injection, schedule: Q01DX001 (ip), vehicle: DMSO
[6] = dose: 38.4 mg/kg/injection, schedule: Q01DX001 (ip), vehicle: DMSO

In the case of `O=NN(CCCl)C(=O)NC1CCC(=O)NC1=O` (stereo not drawn), the T/C (dose: 0.5 mg/kg/injection, schedule: Q01DX005 (ip), vehicle: Klucel (hydroxypropylcellulose) (HPC)) is reported as 91 % of control, the T/C (dose: 0.5 mg/kg/injection, schedule: Q01DX005 (ip), vehicle: saline with Tween-80) is reported as 109 % of control and the T/C (dose: 1.0 mg/kg/injection, schedule: Q01DX005 (ip), vehicle: Klucel (hydroxypropylcellulose) (HPC)) is reported as 114 % of control. The T/C (dose: 1.0 mg/kg/injection, schedule: Q01DX005 (ip), vehicle: suspension in saline) was 124 % of control, the T/C (dose: 1.0 mg/kg/injection, schedule: Q01DX009 (ip), vehicle: saline with Tween-80) was 241 % of control and the T/C (dose: 2.0 mg/kg/injection, schedule: Q01DX005 (ip), vehicle: saline with Tween-80) was 238 % of control. For the same compound, the T/C (dose: 2.0 mg/kg/injection, schedule: Q01DX009 (ip), vehicle: saline with Tween-80) was 241 % of control, the T/C (dose: 2.59 mg/kg/injection, schedule: Q01DX005 (ip), vehicle: Klucel (hydroxypropylcellulose) (HPC)) was 309 % of control and the T/C (dose: 4.0 mg/kg/injection, schedule: Q01DX001 (ip), vehicle: saline + alcohol) was 154 % of control. For the same compound, the T/C (dose: 4.0 mg/kg/injection, schedule: Q01DX005 (ip), vehicle: Klucel (hydroxypropylcellulose) (HPC)) was 207 % of control, the T/C (dose: 4.0 mg/kg/injection, schedule: Q01DX005 (ip), vehicle: saline with Tween-80) was 396 % of control and the T/C (dose: 4.0 mg/kg/injection, schedule: Q01DX005 (ip), vehicle: suspension in saline) was 179 % of control and 236 % of control and 260 % of control. For the same compound, the T/C (dose: 4.32 mg/kg/injection, schedule: Q01DX005 (ip), vehicle: Klucel (hydroxypropylcellulose) (HPC)) was 357 % of control, the T/C [1] was 112 % of control and the T/C (dose: 6.0 mg/kg/injection, schedule: Q01DX005 (ip), vehicle: suspension in saline) was 262 % of control and 267 % of control. For the same compound, the T/C (dose: 7.2 mg/kg/injection, schedule: Q01DX001 (ip), vehicle: Klucel (hydroxypropylcellulose) (HPC)) was 187 % of control, the T/C (dose: 7.2 mg/kg/injection, schedule: Q01DX005 (ip), vehicle: Klucel (hydroxypropylcellulose) (HPC)) was 357 % of control and the T/C (dose: 8.0 mg/kg/injection, schedule: Q01DX001 (ip), vehicle: saline + alcohol) was 229 % of control. For the same compound, the T/C (dose: 8.0 mg/kg/injection, schedule: Q01DX005 (ip), vehicle: Klucel (hydroxypropylcellulose) (HPC)) was 274 % of control, the T/C [2] was 172 % of control and the T/C (dose: 8.0 mg/kg/injection, schedule: Q01DX005 (ip), vehicle: suspension in saline) was 205 % of control. The T/C [3] was 226 % of control, the T/C (dose: 10.0 mg/kg/injection, schedule: Q07DX003 (ip), vehicle: saline) was 175 % of control and the T/C (dose: 10.0 mg/kg/injection, schedule: Q07DX003 (ip), vehicle: suspension in saline) was 252 % of control. For the same compound, the T/C (dose: 12.0 mg/kg/injection, schedule: Q01DX001 (ip), vehicle: Klucel (hydroxypropylcellulose) (HPC)) was 363 % of control, the T/C (dose: 12.0 mg/kg/injection, schedule: Q01DX005 (ip), vehicle: Klucel (hydroxypropylcellulose) (HPC)) was 357 % of control and the T/C (dose: 13.8 mg/kg/injection, schedule: Q01DX001 (ip), vehicle: DMSO) was 367 % of control. The T/C (dose: 16.0 mg/kg/injection, schedule: Q01DX001 (ip), vehicle: saline + alcohol) was 324 % of control, the T/C [4] was 114 % of control and the T/C (dose: 20.0 mg/kg/injection, schedule: Q01DX001 (ip), vehicle: Klucel (hydroxypropylcellulose) (HPC)) was 363 % of control. For the same compound, the T/C (dose: 20.0 mg/kg/injection, schedule: Q07DX003 (ip), vehicle: saline) was 99 % of control, the T/C (dose: 20.0 mg/kg/injection, schedule: Q07DX003 (ip), vehicle: suspension in saline) was 252 % of control and the T/C [5] was 367 % of control. The T/C (dose: 32.0 mg/kg/injection, schedule: Q01DX001 (ip), vehicle: saline + alcohol) was 324 % of control, the T/C (dose: 32.0 mg/kg/injection, schedule: Q01DX001 (ip), vehicle: suspension in saline) was 120 % of control and the T/C (dose: 33.3 mg/kg/injection, schedule: Q01DX001 (ip), vehicle: Klucel (hydroxypropylcellulose) (HPC)) was 90 % of control. For the same compound, the T/C [6] was 366 % of control.

With `O=C(O)C(O)C(O)C(=O)O.[NH-]C1CCCCC1[NH-].[Pt+2]` (stereo not drawn) the T/C (dose: 2.0 mg/kg/injection, schedule: Q01DX005 (ip), vehicle: dextrose) was 96 % of control and the T/C (dose: 4.0 mg/kg/injection, schedule: Q01DX005 (ip), vehicle: dextrose) was 110 % of control.

`N=[N+]=CC(=O)CCC(NC(=O)C(CCC(=O)C=[N+]=N)NC(=O)CCC(N)C(=O)O)C(=O)O` (stereo not drawn) was tested, and the T/C (dose: 0.05 mg/kg/injection, schedule: Q01DX005 (ip), vehicle: Klucel (hydroxypropylcellulose) (HPC)) was 100 % of control and 106 % of control, the T/C (dose: 0.1 mg/kg/injection, schedule: Q01DX005 (ip), vehicle: Klucel (hydroxypropylcellulose) (HPC)) was 90 % of control and 107 % of control and the T/C (dose: 0.2 mg/kg/injection, schedule: Q01DX005 (ip), vehicle: Klucel (hydroxypropylcellulose) (HPC)) was 99 % of control and 108 % of control. For the same compound, the T/C (dose: 0.4 mg/kg/injection, schedule: Q01DX005 (ip), vehicle: Klucel (hydroxypropylcellulose) (HPC)) was 97 % of control and 114 % of control.

For `CCCCCCCCN(C)/N=N/c1nc[nH]c1C(N)=O`, the T/C [2] was 119 % of control, the T/C [4] was 122 % of control and 123 % of control and the T/C (dose: 32.0 mg/kg/injection, schedule: Q01DX005 (ip), vehicle: saline with Tween-80) was 113 % of control. The T/C (dose: 64.0 mg/kg/injection, schedule: Q01DX005 (ip), vehicle: saline with Tween-80) was 111 % of control.

In the case of `Cc1cn(C2CC(O)C(CO)O2)c(=O)[nH]c1=O` (stereo not drawn), the T/C (dose: 64.0 mg/kg/injection, schedule: Q01DX005 (ip), vehicle: suspension in saline) is reported as 104 % of control, the T/C (dose: 125.0 mg/kg/injection, schedule: Q01DX003 (ip), vehicle: saline with Tween-80) is reported as 95 % of control and the T/C (dose: 125.0 mg/kg/injection, schedule: Q04DX003 (ip), vehicle: saline with Tween-80) is reported as 111 % of control. For the same compound, the T/C (dose: 128.0 mg/kg/injection, schedule: Q01DX005 (ip), vehicle: suspension in saline) was 94 % of control, the T/C (dose: 250.0 mg/kg/injection, schedule: Q01DX003 (ip), vehicle: saline with Tween-80) was 99 % of control and the T/C (dose: 250.0 mg/kg/injection, schedule: Q04DX003 (ip), vehicle: saline with Tween-80) was 113 % of control. The T/C (dose: 256.0 mg/kg/injection, schedule: Q01DX005 (ip), vehicle: suspension in saline) was 95 % of control, the T/C (dose: 500.0 mg/kg/injection, schedule: Q01DX003 (ip), vehicle: saline with Tween-80) was 95 % of control and the T/C (dose: 500.0 mg/kg/injection, schedule: Q04DX003 (ip), vehicle: saline with Tween-80) was 92 % of control and 120 % of control. The T/C (dose: 512.0 mg/kg/injection, schedule: Q01DX005 (ip), vehicle: suspension in saline) was 92 % of control, the T/C (dose: 800.0 mg/kg/injection, schedule: Q01DX005 (ip), vehicle: saline with Tween-80) was 98 % of control and the T/C (dose: 1000.0 mg/kg/injection, schedule: Q01DX003 (ip), vehicle: saline with Tween-80) was 107 % of control. For the same compound, the T/C (dose: 1000.0 mg/kg/injection, schedule: Q04DX003 (ip), vehicle: saline with Tween-80) was 106 % of control and 112 % of control, the T/C (dose: 1024.0 mg/kg/injection, schedule: Q01DX005 (ip), vehicle: suspension in saline) was 103 % of control and the T/C (dose: 1600.0 mg/kg/injection, schedule: Q01DX005 (ip), vehicle: saline with Tween-80) was 101 % of control. For the same compound, the T/C (dose: 2000.0 mg/kg/injection, schedule: Q01DX003 (ip), vehicle: saline with Tween-80) was 97 % of control, the T/C (dose: 2000.0 mg/kg/injection, schedule: Q04DX003 (ip), vehicle: saline with Tween-80) was 116 % of control and 89 % of control and the T/C (dose: 3000.0 mg/kg/injection, schedule: Q01DX003 (ip), vehicle: saline with Tween-80) was 94 % of control. For the same compound, the T/C (dose: 3000.0 mg/kg/injection, schedule: Q04DX003 (ip), vehicle: saline with Tween-80) was 94 % of control and 104 % of control and the T/C (dose: 3200.0 mg/kg/injection, schedule: Q01DX005 (ip), vehicle: saline with Tween-80) was 91 % of control.

With `CN(C)C(=O)N(CCCl)N=O` the T/C [1] was 106 % of control, the T/C [3] was 112 % of control and the T/C (dose: 12.5 mg/kg/injection, schedule: Q01DX001 (ip), vehicle: water) was 188 % of control. For the same compound, the T/C [5] was 366 % of control, the T/C (dose: 25.0 mg/kg/injection, schedule: Q01DX001 (ip), vehicle: water) was 332 % of control and the T/C [6] was 365 % of control.
